According to publication PMC5218480 (PLoS ONE, 2017):

Tested on: MV-4-11 cells
Assay: Gene expression microarray analysis (Affymetrix PrimeView) and GSEA
Assay type: cell-based, human
Design: RFU PODN (11730768_x_at) / Fold change /veh PODN (11730768_x_at) / RFU LINC00158 (11744669_a_at) / Fold change /veh LINC00158 (11744669_a_at) / RFU DUSP10 (11751237_a_at) / Fold change /veh DUSP10 (11751237_a_at) / RFU ID3 (11757404_x_at) / Fold change /veh ID3 (11757404_x_at) / RFU PLEKHG5 (11737974_s_at) / Fold change /veh PLEKHG5 (11737974_s_at) / RFU LRRC4B (11730491_at) / Fold change /veh LRRC4B (11730491_at) / RFU GIMAP4 (11747438_a_at) / Fold change /veh GIMAP4 (11747438_a_at) / RFU KRT8 (11758183_x_at) / Fold change /veh KRT8 (11758183_x_at) / RFU CNN1 (11734310_a_at) / Fold change /veh CNN1 (11734310_a_at) / RFU VPS37D (11726825_at) / Fold change /veh VPS37D (11726825_at) / RFU C10orf10 (11716522_x_at) / Fold change /veh C10orf10 (11716522_x_at) / RFU KIR2DL2 /// KIR2DL4 /// KIR2DL5A /// KIR2DL5B /// KIR2DS1 /// KIR2DS2 /// KIR2DS3 /// KIR2DS4 /// KIR3DL3 /// KIR3DL3 /// KIR3DS1 (11738374_at) / Fold change /veh KIR2DL2 /// KIR2DL4 /// KIR2DL5A /// KIR2DL5B /// KIR2DS1 /// KIR2DS2 /// KIR2DS3 /// KIR2DS4 /// KIR3DL3 /// KIR3DL3 /// KIR3DS1 (11738374_at) / RFU C1QL1 (11718748_at) / Fold change /veh C1QL1 (11718748_at) / RFU TMPRSS4 (11747572_a_at) / Fold change /veh TMPRSS4 (11747572_a_at) / RFU HAMP (11756126_x_at) / Fold change /veh HAMP (11756126_x_at) / RFU RNFT2 (11725882_a_at) / Fold change /veh RNFT2 (11725882_a_at) / RFU NR4A2 (11747474_a_at) / Fold change /veh NR4A2 (11747474_a_at) / RFU ABCC12 (11746883_a_at) / Fold change /veh ABCC12 (11746883_a_at) / RFU TMEM136 (11760407_x_at) / Fold change /veh TMEM136 (11760407_x_at) / RFU CLDN22 /// WWC2 (11732394_at) / Fold change /veh CLDN22 /// WWC2 (11732394_at) / RFU HLA-DPB1 (11760878_x_at) / Fold change /veh HLA-DPB1 (11760878_x_at) / RFU SPINT1 (11716480_a_at) / Fold change /veh SPINT1 (11716480_a_at) / RFU GAP43 (11754022_s_at) / Fold change /veh GAP43 (11754022_s_at) / RFU A4GNT (11735810_at) / Fold change /veh A4GNT (11735810_at) / RFU PRB3 (11715151_x_at) / Fold change /veh PRB3 (11715151_x_at) / RFU TUBB4B (11761932_at) / Fold change /veh TUBB4B (11761932_at) / RFU CAPN14 (11732068_a_at) / Fold change /veh CAPN14 (11732068_a_at) / RFU TMCC2 (11721928_a_at) / Fold change /veh TMCC2 (11721928_a_at) / RFU IRGQ (11745062_a_at) / Fold change /veh IRGQ (11745062_a_at) / RFU FAM174B (11720279_a_at) / Fold change /veh FAM174B (11720279_a_at) / RFU TMPRSS4 (11748680_a_at) / Fold change /veh TMPRSS4 (11748680_a_at) / RFU FAM212B (11763350_a_at) / Fold change /veh FAM212B (11763350_a_at) / RFU PLEKHG5 (11743358_a_at) / Fold change /veh PLEKHG5 (11743358_a_at) / RFU ZSCAN30 (11745921_a_at) / Fold change /veh ZSCAN30 (11745921_a_at) / RFU CMKLR1 (11741424_a_at) / Fold change /veh CMKLR1 (11741424_a_at) / RFU LOC101060620 /// MAPK8IP1 (11723275_at) / Fold change /veh LOC101060620 /// MAPK8IP1 (11723275_at) / RFU SPTSSB (11747773_x_at) / Fold change /veh SPTSSB (11747773_x_at) / RFU PRSS12 (11739890_at) / Fold change /veh PRSS12 (11739890_at) / RFU BIN1 (11741810_x_at) / Fold change /veh BIN1 (11741810_x_at) / RFU WNT11 (11732464_a_at) / Fold change /veh WNT11 (11732464_a_at) / RFU C10orf10 (11716521_a_at) / Fold change /veh C10orf10 (11716521_a_at) / RFU C5orf56 (11738089_at) / Fold change /veh C5orf56 (11738089_at) / RFU CYB561 (11721691_x_at) / Fold change /veh CYB561 (11721691_x_at) / RFU ANKRD19P (11752326_a_at) / Fold change /veh ANKRD19P (11752326_a_at) / RFU OR2T12 /// OR2T33 /// OR2T8 (11738714_s_at) / Fold change /veh OR2T12 /// OR2T33 /// OR2T8 (11738714_s_at) / RFU VCAN (11748164_a_at) / Fold change /veh VCAN (11748164_a_at) / RFU JSRP1 (11732532_at) / Fold change /veh JSRP1 (11732532_at) / RFU KRTAP10-11 (11738290_x_at) / Fold change /veh KRTAP10-11 (11738290_x_at) / RFU MYO3A (11730013_a_at) / Fold change /veh MYO3A (11730013_a_at) / RFU EBF3 (11725865_a_at) / Fold change /veh EBF3 (11725865_a_at) / RFU CAMK2N1 (11719241_x_at) / Fold change /veh CAMK2N1 (11719241_x_at) / RFU C5orf56 (11738088_a_at) / Fold change /veh C5orf56 (11738088_a_at) / RFU OLFML3 (11715873_a_at) / Fold change /veh OLFML3 (11715873_a_at) / RFU LOC100653217 /// NTM (11731650_a_at) / Fold change /veh LOC100653217 /// NTM (11731650_a_at) / RFU MAPK11 (11762145_a_at) / Fold change /veh MAPK11 (11762145_a_at) / RFU FIZ1 (11724087_x_at) / Fold change /veh FIZ1 (11724087_x_at) / RFU OASL (11726364_x_at) / Fold change /veh OASL (11726364_x_at) / RFU SOX15 (11748057_x_at) / Fold change /veh SOX15 (11748057_x_at) / RFU CD79A (11719716_a_at) / Fold change /veh CD79A (11719716_a_at) / RFU HIST1H1D (11736915_at) / Fold change /veh HIST1H1D (11736915_at) / RFU CASKIN2 (11723855_a_at) / Fold change /veh CASKIN2 (11723855_a_at) / RFU LOC730098 (11760151_x_at) / Fold change /veh LOC730098 (11760151_x_at) / RFU OR4N2 (11742367_at) / Fold change /veh OR4N2 (11742367_at) / RFU PRRT2 (11749266_a_at) / Fold change /veh PRRT2 (11749266_a_at) / RFU SNX32 (11753110_a_at) / Fold change /veh SNX32 (11753110_a_at) / RFU CDHR5 (11726645_a_at) / Fold change /veh CDHR5 (11726645_a_at) / RFU RCAN1 (11760418_a_at) / Fold change /veh RCAN1 (11760418_a_at) / RFU FAM167A (11723789_a_at) / Fold change /veh FAM167A (11723789_a_at) / RFU FAM26E (11764081_at) / Fold change /veh FAM26E (11764081_at) / RFU ISYNA1 (11749810_s_at) / Fold change /veh ISYNA1 (11749810_s_at) / RFU ACY1 (11761880_at) / Fold change /veh ACY1 (11761880_at) / RFU 11764098_at / Fold change /veh 11764098_at / RFU SAMD14 (11745864_x_at) / Fold change /veh SAMD14 (11745864_x_at) / RFU NPB (11741838_a_at) / Fold change /veh NPB (11741838_a_at) / RFU TMPRSS6 (11731388_a_at) / Fold change /veh TMPRSS6 (11731388_a_at) / RFU KRTAP10-2 (11738614_at) / Fold change /veh KRTAP10-2 (11738614_at) / RFU ARHGAP8 /// PRR5-ARHGAP8 (11727945_x_at) / Fold change /veh ARHGAP8 /// PRR5-ARHGAP8 (11727945_x_at) / RFU KRTAP5-7 /// NADSYN1 (11734609_at) / Fold change /veh KRTAP5-7 /// NADSYN1 (11734609_at) / RFU RASL12 (11751679_a_at) / Fold change /veh RASL12 (11751679_a_at) / RFU CDKN2B (11736163_a_at) / Fold change /veh CDKN2B (11736163_a_at) / RFU PRF1 (11729649_at) / Fold change /veh PRF1 (11729649_at) / RFU, ZNF638 /// ZNF638-IT1 / Fold change vs veh, ZNF638 /// ZNF638-IT1 / RFU, PANK3 / Fold change vs veh, PANK3 / RFU, SH3YL1 / Fold change vs veh, SH3YL1 / RFU, ZEB2 / Fold change vs veh, ZEB2 / RFU, NRIP1 / Fold change vs veh, NRIP1 / RFU, PTTG1IP / Fold change vs veh, PTTG1IP / RFU, CAPN2 / Fold change vs veh, CAPN2 / RFU, MED14 / Fold change vs veh, MED14 / RFU, SNORA58 / Fold change vs veh, SNORA58 / RFU, C1orf63 / Fold change vs veh, C1orf63 / RFU, LRRFIP1 / Fold change vs veh, LRRFIP1 / RFU, NDUFAF7 / Fold change vs veh, NDUFAF7 / RFU, SLC12A2 / Fold change vs veh, SLC12A2 / RFU, IBTK / Fold change vs veh, IBTK / RFU, ESF1 / Fold change vs veh, ESF1 / Fold change vs veh, TMEM50B / RFU, TAOK1 / Fold change vs veh, TAOK1 / RFU, ACBD3 / Fold change vs veh, ACBD3 / RFU, TMA16 / Fold change vs veh, TMA16 / RFU, RWDD3 / Fold change vs veh, RWDD3 / RFU, BCAT1 / Fold change vs veh, BCAT1 / RFU, EDEM3 / Fold change vs veh, EDEM3 / RFU, TMEM33 / Fold change vs veh, TMEM33 / RFU, WDR75 / Fold change vs veh, WDR75 / RFU, AHCTF1 / Fold change vs veh, AHCTF1 / RFU, TFRC / Fold change vs veh, TFRC / RFU, ZDHHC17 / Fold change vs veh, ZDHHC17 / RFU, NOM1 / Fold change vs veh, NOM1 / RFU, ARL8B / Fold change vs veh, ARL8B / RFU, ZBTB11 / Fold change vs veh, ZBTB11 / RFU, TAMM41 / Fold change vs veh, TAMM41 / RFU, KIAA1704 /// LOC100996395 / Fold change vs veh, KIAA1704 /// LOC100996395 / RFU, ING1 / Fold change vs veh, ING1 / RFU, TRMT61B / Fold change vs veh, TRMT61B / RFU, FUBP3 / Fold change vs veh, FUBP3 / RFU, TP53 / Fold change vs veh, TP53 / RFU, TNKS2 / Fold change vs veh, TNKS2 / RFU, ZFP14 / Fold change vs veh, ZFP14 / RFU, ACTR2 / Fold change vs veh, ACTR2 / RFU, PPP3R1 / Fold change vs veh, PPP3R1 / RFU, PIK3R1 / Fold change vs veh, PIK3R1 / RFU, HNRNPA1 / Fold change vs veh, HNRNPA1 / RFU, RNF170 / Fold change vs veh, RNF170 / RFU, ZNF28 / Fold change vs veh, ZNF28 / RFU, RNGTT / Fold change vs veh, RNGTT / RFU, OGT / Fold change vs veh, OGT / RFU, BRD1 / Fold change vs veh, BRD1 / RFU, MARS / Fold change vs veh, MARS / RFU, ZNF655 / Fold change vs veh, ZNF655 / RFU, FAHD1 / Fold change vs veh, FAHD1 / RFU, BDP1 / Fold change vs veh, BDP1 / RFU, LRRCC1 / Fold change vs veh, LRRCC1 / RFU, ARID1A / Fold change vs veh, ARID1A / RFU, ZNF146 / Fold change vs veh, ZNF146 / RFU, ZNF330 / Fold change vs veh, ZNF330 / RFU, GPN3 / Fold change vs veh, GPN3 / RFU, C9orf123 / Fold change vs veh, C9orf123 / RFU, N4BP2L2 / Fold change vs veh, N4BP2L2 / RFU, ARFIP1 / Fold change vs veh, ARFIP1 / RFU, FAM179B / Fold change vs veh, FAM179B / RFU, BCL10 / Fold change vs veh, BCL10 / RFU, UHRF1BP1L / Fold change vs veh, UHRF1BP1L / RFU, BET1 / Fold change vs veh, BET1 / RFU, CNOT2 / Fold change vs veh, CNOT2 / RFU, ZNF268 / Fold change vs veh, ZNF268 / Fold change vs veh, ZNF507 / RFU, DGCR2 / Fold change vs veh, DGCR2 / RFU, WDSUB1 / Fold change vs veh, WDSUB1 / Fold change vs veh, HSP90B1 /// MIR3652 / RFU, ADSS / Fold change vs veh, ADSS / RFU, GK / Fold change vs veh, GK / RFU, ZNF148 / Fold change vs veh, ZNF148 / RFU, TAF9 / Fold change vs veh, TAF9 / RFU, SLC1A5 / Fold change vs veh, SLC1A5 / RFU, SLMO2 / Fold change vs veh, SLMO2 / RFU, ABCC4 / Fold change vs veh, ABCC4 / RFU, LOC101060439 /// RAP1B / Fold change vs veh, LOC101060439 /// RAP1B / RFU, RFX7 / Fold change vs veh, RFX7 / RFU, GTPBP10 / Fold change vs veh, GTPBP10 / RFU, CNEP1R1 / Fold change vs veh, CNEP1R1 / RFU, BIVM-ERCC5 /// ERCC5 / Fold change vs veh, BIVM-ERCC5 /// ERCC5 / RFU, ILF3 / Fold change vs veh, ILF3 / RFU 11762660_at / Fold change /veh 11762660_at / RFU VCAN (11757783_s_at) / Fold change /veh VCAN (11757783_s_at) / RFU DDX43 (11728927_at) / Fold change /veh DDX43 (11728927_at) / RFU KRT8 (11758188_x_at) / Fold change /veh KRT8 (11758188_x_at) / RFU NKD1 (11759106_at) / Fold change /veh NKD1 (11759106_at) / RFU SRD5A1 (11742802_a_at) / Fold change /veh SRD5A1 (11742802_a_at) / RFU TPSAB1 /// TPSB2 (11721975_s_at) / Fold change /veh TPSAB1 /// TPSB2 (11721975_s_at) / RFU GSTM3 (11746129_a_at) / Fold change /veh GSTM3 (11746129_a_at) / RFU IL23R (11737362_x_at) / Fold change /veh IL23R (11737362_x_at) / RFU TMEM51 (11727254_a_at) / Fold change /veh TMEM51 (11727254_a_at) / RFU PIWIL2 (11732686_x_at) / Fold change /veh PIWIL2 (11732686_x_at) / RFU ORM1 (11744905_x_at) / Fold change /veh ORM1 (11744905_x_at) / RFU CCDC152 (11743942_at) / Fold change /veh CCDC152 (11743942_at) / RFU ECM1 (11717891_a_at) / Fold change /veh ECM1 (11717891_a_at) / RFU IL23R (11748794_a_at) / Fold change /veh IL23R (11748794_a_at) / RFU TNFAIP8L3 (11732012_x_at) / Fold change /veh TNFAIP8L3 (11732012_x_at) / RFU MBOAT4 (11741988_at) / Fold change /veh MBOAT4 (11741988_at) / RFU 11764193_at / Fold change /veh 11764193_at / RFU TMEM53 (11763286_at) / Fold change /veh TMEM53 (11763286_at) / RFU MAGEB2 (11727129_at) / Fold change /veh MAGEB2 (11727129_at) / RFU TMEM200A (11744735_a_at) / Fold change /veh TMEM200A (11744735_a_at) / RFU CCDC152 (11751479_a_at) / Fold change /veh CCDC152 (11751479_a_at) / RFU FAM211A (11726209_a_at) / Fold change /veh FAM211A (11726209_a_at) / RFU RGS16 (11746705_a_at) / Fold change /veh RGS16 (11746705_a_at) / RFU VCAN (11755009_s_at) / Fold change /veh VCAN (11755009_s_at) / RFU RHOB (11743442_s_at) / Fold change /veh RHOB (11743442_s_at) / RFU RGS16 (11720943_a_at) / Fold change /veh RGS16 (11720943_a_at) / RFU RGS16 (11720944_at) / Fold change /veh RGS16 (11720944_at) / RFU, VPS4B / Fold change vs veh, VPS4B / RFU, CREB1 / Fold change vs veh, CREB1 / RFU, DNAJC13 / Fold change vs veh, DNAJC13 / RFU, GNAQ / Fold change vs veh, GNAQ / RFU, CDK5R1 / Fold change vs veh, CDK5R1 / RFU, ZRANB3 / Fold change vs veh, ZRANB3 / RFU, CUL4A / Fold change vs veh, CUL4A / RFU, CCNY / Fold change vs veh, CCNY / RFU, UFL1 / Fold change vs veh, UFL1 / RFU, COG3 / Fold change vs veh, COG3 / RFU, DIAPH2 / Fold change vs veh, DIAPH2 / RFU, SKA2 / Fold change vs veh, SKA2 / RFU, AFF3 / Fold change vs veh, AFF3 / RFU, LMF1 / Fold change vs veh, LMF1 / RFU, IPO11 / Fold change vs veh, IPO11 / RFU, DFFB / Fold change vs veh, DFFB / RFU, FOXP1 / Fold change vs veh, FOXP1 / RFU, CARD8 / Fold change vs veh, CARD8 / RFU, STRN3 / Fold change vs veh, STRN3 / RFU, ADK / Fold change vs veh, ADK / RFU, RASSF2 / Fold change vs veh, RASSF2 / RFU, WIPF1 / Fold change vs veh, WIPF1 / RFU, LARP1B / Fold change vs veh, LARP1B / RFU, RASA1 / Fold change vs veh, RASA1 / RFU, RB1 / Fold change vs veh, RB1 / RFU, PPFIA1 / Fold change vs veh, PPFIA1 / RFU, MAT2A / Fold change vs veh, MAT2A / RFU, CCT5 / Fold change vs veh, CCT5 / RFU, WDR92 / Fold change vs veh, WDR92 / RFU, CUX1 / Fold change vs veh, CUX1 / RFU, TTC7A / Fold change vs veh, TTC7A / RFU, TMEM135 / Fold change vs veh, TMEM135 / RFU, DEPTOR / Fold change vs veh, DEPTOR / RFU, CPM / Fold change vs veh, CPM / RFU, DNAJB6 / Fold change vs veh, DNAJB6 / RFU, CACNA2D3 / Fold change vs veh, CACNA2D3 / RFU, DTX4 / Fold change vs veh, DTX4 / RFU, TFCP2 / Fold change vs veh, TFCP2 / RFU, GMCL1 /// GMCL1P1 / Fold change vs veh, GMCL1 /// GMCL1P1 / RFU, AEBP2 / Fold change vs veh, AEBP2 / RFU, SNHG1 /// SNORD22 /// SNORD25 /// SNORD26 /// SNORD27 /// SNORD28 /// SNORD29 /// SNORD31 / Fold change vs veh, SNHG1 /// SNORD22 /// SNORD25 /// SNORD26 /// SNORD27 /// SNORD28 /// SNORD29 /// SNORD31 / Fold change (Aza/veh), C12orf56 (ProbeSet 11735607_a_at) / Fold change (ACY-1035/veh), C12orf56 (ProbeSet 11735607_a_at) / Fold change (Aza/veh), FGFR1OP (ProbeSet 11751329_s_at) / Fold change (ACY-1035/veh), FGFR1OP (ProbeSet 11751329_s_at) / Fold change (Aza/veh), VPS36 (ProbeSet 11739960_a_at) / Fold change (ACY-1035/veh), VPS36 (ProbeSet 11739960_a_at) / RFU SYPL1 (11715823_x_at) / Fold change /veh SYPL1 (11715823_x_at) / RFU IGFBP7 (11715501_s_at) / Fold change /veh IGFBP7 (11715501_s_at) / RFU REEP3 (11722064_at) / Fold change /veh REEP3 (11722064_at) / RFU IGLL1 (11728026_x_at) / Fold change /veh IGLL1 (11728026_x_at): dose or concentration left out as unconfirmed
Details: ProbeSet 11740011_at; LIST B

Nc1ccc(-c2cccs2)cc1NC(=O)c1ccc2c(c1)cc(C1CC1)n2CCN1CCOCC1 [ACY-1035]
RFU, ZFP14: 75.53 RFU
